US5741790A, “Azetidines” (Pfizer Inc., priority 1996, dated 1998)

What was measured:
[1] = molecular target: T1, NK2 receptor (Oryctolagus cuniculus, UniProt P79218); assay: NK2 receptor antagonist activity in vitro: antagonism of contractile effects of [βAla8]NKA(4-10) in rabbit pulmonary artery (Patacchini and Maggi); assay type: biochemical; conditions: agonist [βAla8]NKA(4-10), read-out: pA2, NK2 receptor antagonist activity (converted)
T1 construct: in the rabbit pulmonary artery; from tissue; host or cells: rabbit pulmonary artery
T1 sequence (P79218 1-384): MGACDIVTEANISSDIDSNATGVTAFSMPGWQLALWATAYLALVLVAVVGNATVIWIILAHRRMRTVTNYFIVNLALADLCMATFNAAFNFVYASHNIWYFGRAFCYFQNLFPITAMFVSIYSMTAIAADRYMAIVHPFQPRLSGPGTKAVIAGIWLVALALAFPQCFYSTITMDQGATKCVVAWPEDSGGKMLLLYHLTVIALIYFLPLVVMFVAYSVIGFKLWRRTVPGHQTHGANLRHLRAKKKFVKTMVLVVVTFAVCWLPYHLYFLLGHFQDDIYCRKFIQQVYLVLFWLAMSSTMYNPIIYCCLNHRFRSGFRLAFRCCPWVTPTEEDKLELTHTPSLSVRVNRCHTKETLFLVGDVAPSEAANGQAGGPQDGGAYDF
Source text: The NK2 receptor antagonist activity of the compounds of the formula (I) can be tested, in vitro, by testing their ability to antagonise the contractile effects of the selective NK2 receptor agonist [βAla^8 ]NKA(4-10) in the rabbit pulmonary artery, using the method of Patacchini and Maggi, Eur. J. Pharmacol., 236, 31-37 (1993).

[2] = molecular target: T2, human NK2 receptor (Homo sapiens, UniProt P21452); assay: NK2 receptor binding: competition with [3H] or [125I]NKA for binding to CHO cell membranes expressing cloned human NK2 receptor; conditions: membranes of Chinese hamster ovary cells expressing cloned human NK2 receptor, 90 min, 25° C., read-out: plC50, NK2 receptor binding activity (converted)
T2 construct: expressed in transfected cells; host or cells: Chinese hamster ovary (CHO) cells, membranes
T2 sequence (P21452 1-398): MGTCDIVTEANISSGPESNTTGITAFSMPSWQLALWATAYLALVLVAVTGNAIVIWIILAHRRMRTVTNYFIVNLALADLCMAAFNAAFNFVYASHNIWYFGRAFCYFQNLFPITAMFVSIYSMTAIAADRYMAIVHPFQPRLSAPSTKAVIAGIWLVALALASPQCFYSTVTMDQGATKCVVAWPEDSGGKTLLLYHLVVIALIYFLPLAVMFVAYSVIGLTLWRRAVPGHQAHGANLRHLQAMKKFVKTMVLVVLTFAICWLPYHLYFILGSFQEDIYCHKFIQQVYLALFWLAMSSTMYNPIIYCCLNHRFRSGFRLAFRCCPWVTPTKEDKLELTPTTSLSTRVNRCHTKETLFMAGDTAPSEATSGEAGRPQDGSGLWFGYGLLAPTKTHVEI
Description: The affinity of the compounds of formula (I) and their salts for the human NK2 receptor can be tested in vitro by testing their ability to compete with [^3 H] or […] (neurokinin A) for binding to membranes prepared from Chinese hamster ovary cells expressing the cloned human NK2 receptor. In this method, washed Chinese hamster ovary cell membranes are prepared as described for the previous method where IM9 cells are used instead. The membranes are incubated (90 min, 25° C.) with [^3 H] or [^125 I] NKA and with a range of concentrations of the test compound. Non-specific binding was determined in the presence of 10μM NKA.

NS(=O)(=O)N1CCN(C2CN(CC[C@]3(c4ccc(Cl)c(Cl)c4)CCC(=O)N(CC4CCCCC4)C3=O)C2)CC1 [Example 3, 3(S)-3-(2-(3-(4-Aminosulphonylpiperazin-1-yl)azetidin-1-yl)ethyl)-1-cyclohexylmethyl-3-(3,4-dichlorophenyl)glutarimide]
Kb [1]: 7.94 nM
IC50 [2]: 0.501 nM
